In paper PMC8242589, “Cardiac Safety of Kinase Inhibitors – Improving Understanding and Prediction of Liabilities in Drug Discovery Using Human Stem Cell-Derived Models” (Frontiers in Cardiovascular Medicine, 2021):
Entries after “also recorded” stand apart in the source; their conditions may differ.

How the values were obtained:
[1] = tested on: hSC-CMs (Cor.4U Cardiomyocytes); experiment: CardioExcyte 96 impedance and EFP recording (beating rate, base impedance); format: cell-based, human; conditions: for activity at 0.3 µM / activity at 3 µM / activity at 30 µM / activity at 300 µM: Homo sapiens, Cardiomyocyte, vs baseline before drug (taken as 100%)
Method: Cor.4U® Cardiomyocytes (Ncardia, Netherlands) were cultured in 96-well plates at density of 25,000 – 30,000 cells per well. Cells were maintained at 5% CO2 and 37 °C for 4 days prior to experiments.
Functional monitoring of cardiomyocytes was done using CardioExcyte® 96 (Nanion technologies GmbH, Germany). Extracellular field potential (EFP) and impedance signals were recorded from hSC-CMs that formed monolayers in the wells of the NSP-96 plate. Beating Rate (BR, per minute) was calculated as the reciprocal of the inter-spike interval (ISI) in EFP signal. Impedance signals from spontaneously beating hSC-CMs were recorded with a sampling rate of 1 ms (1 kHz), and EFP data were collected at 0.1ms (10 kHz). Data acquisition was controlled by CardioExcyte® 96 Control software as previously described ([22]). The functional parameters recorded in each concentration of test items were compared to the base line values before drug addition (taken as 100%) to define fractional change.

[2] = tested on: hSC-CMs (Cor.4U Cardiomyocytes); experiment: Apoptosis assay (CellEvent Caspase-3/7 Green, IncuCyte ZOOM kinetics over 24 h); format: cell-based, human
Method: Cor.4U® Cardiomyocytes ([…], Netherlands) were cultured in 96-well plates at density of 25,000 - 30,000 cells per well. Cells were maintained at 5% CO2 and 37 °C for 4 days prior to experiments. […] The plates were incubated 2 h before compound treatment in the IncuCyte ZOOM (ESSEN BioScience, Ann Arbor, Michigan) to set a baseline before the 24 h compound treatment. […] Imaging was done using 10x microscope objective of the IncuCyteZOOM with four images per well-taken every 2 h in both phase-contrast and green fluorescence. The fluorescent nuclear signal of the apoptotic cells was separated from background with the integrated object counting algorithm, adjusted to cardiomyocytes, and the calculated total green object area per well (μm^2/well) plotted against time. Data were normalized to those of the time-matched vehicle control. Data were representative of at least three replicates per concentration.

[3] = tested on: hSC-CMs (Cor.4U Cardiomyocytes); experiment: ATP assay (CellTiter-Glo Luminescent Cell Viability Assay); format: cell-based, human; conditions: for viability at 0.3 µM / viability at 3 µM / viability at 30 µM / viability at 300 µM: Homo sapiens, Cardiomyocyte, normalized to time-matched DMSO control
Method: Cor.4U® Cardiomyocytes (Ncardia, Netherlands) were cultured in 96-well plates at density of 25,000 – 30,000 cells per well. Cells were maintained at 5% CO2 and 37 °C for 4 days prior to experiments. The cell culture medium (Cor4U® Complete Culture Medium, cat# Ax-M-HC250E, Axiogenesis AG, Cologne, Germany) was changed every 24 h and was replaced by serum-free BMCC medium (cat# Ax-M-BMCC259, Axiogenesis AG, Cologne, Germany) 12 h prior to drug addition.
The CellTiter-Glo Luminescent Cell Viability Assay (cat# G7572, Promega, USA) was performed for quantification of the cellular ATP concentration according to manufacturer's instructions. Plates were shaken for 2 min in the dark, incubated at ambient temperature for 10 min before measuring luminescence (Integration time 0.1 seconds per well) with Luminescence Counter (Synergy H1, BioTek Instruments, Inc., Winooski, Vermont). The measured ATP concentration values were normalized to the time-matched DMSO controls. Data are representative of at least three replicates per concentration.

[4] = tested on: ROCK1; conditions: ref [36] (RKI-1447), [37], [38] (Fasudil), [39]–[43] (Y-27632), [44], [45] (GSK-429286); read-out: Target IC50 ROCK1; cited from earlier work
[5] = Homo sapiens, Cardiomyocyte, 2h, normalized to time-matched vehicle control
[6] = Homo sapiens, Cardiomyocyte, 24h, normalized to time-matched vehicle control

Compound: O=S(=O)(c1cccc2cnccc12)N1CCCNCC1 [Fasudil]
- activity at 0.3 µM ([1]; 2h, read-out: BR): 100%
- activity at 0.3 µM ([1]; 2h, read-out: Base Imp): 87%
- activity at 0.3 µM ([1]; 24h, read-out: BR): 97%
- activity at 0.3 µM ([1]; 24h, read-out: Base Imp): 87%
- activity at 3 µM ([1]; 2h, read-out: BR): 97%
- activity at 3 µM ([1]; 2h, read-out: Base Imp): 86%
- activity at 3 µM ([1]; 24h, read-out: BR): 100%
- activity at 3 µM ([1]; 24h, read-out: Base Imp): 85%
- activity at 30 µM ([1]; 2h, read-out: BR): 96%
- activity at 30 µM ([1]; 2h, read-out: Base Imp): 82%
- activity at 30 µM ([1]; 24h, read-out: BR): 94%
- activity at 30 µM ([1]; 24h, read-out: Base Imp): 71%
- activity at 300 µM ([1]; 2h, read-out: BR): 70%
- activity at 300 µM ([1]; 2h, read-out: Base Imp): 65%
- activity at 300 µM ([1]; 24h, read-out: BR): 110%
- activity at 300 µM ([1]; 24h, read-out: Base Imp): 44%
- Effect on base impedance, in words ([1]; hSC-CMs, 2 and 24 h): concentration-and time-dependent decrease in base impedance; also recorded: concentration-dependent effects
- Inhibition of beating rate ([1]; highest test concentration, after 2 h of incubation): ~ 30%
- activity at 0.3 µM [2, 5]: 136%
- activity at 0.3 µM [2, 6]: 80%
- activity at 3 µM [2, 5]: 119%
- activity at 3 µM [2, 6]: 83%
- activity at 30 µM [2, 5]: 107%
- activity at 30 µM [2, 6]: 138%
- activity at 300 µM ([2]; Homo sapiens, Cardiomyocyte, 300 µM, 2h, normalized to time-matched vehicle control): 97%
- Time of notable raise in the caspase-3/7 activity ([2]; highest test concentrations only): 12 to 18 h
- viability at 0.3 µM ([3]; 2h): 87%
- viability at 0.3 µM ([3]; 24h): 96%
- viability at 3 µM ([3]; 2h): 91%
- viability at 3 µM ([3]; 24h): 102%
- viability at 30 µM ([3]; 2h): 97%
- viability at 30 µM ([3]; 24h): 100%
- viability at 300 µM ([3]; 2h): 101%
- viability at 300 µM ([3]; 24h): 91%
- Reduction in the ATP content ([3]; top concentration): 9%
